{"source": "patent US20250122211A1", "about": "“NITROGEN-CONTAINING TETRACYCLIC COMPOUND, PREPARATION METHOD THEREFOR, AND MEDICAL USE THEREOF” (Jiangsu Hengrui Pharmaceuticals Co., Ltd., priority 2021, published 2025)", "format_in_all_cases": "cell-based", "key": {"H358 cells": {"tested_on": "H358 cells", "test": "H358 proliferation assay (CellTiter-Glo)", "conditions": "120 h incubation, read-out: IC50 (nM), inhibitory activity against H358 cell proliferation", "method": "The inhibitory activity of the compounds of the present disclosure against H358 cell proliferation was measured. Below is a brief description of the experimental method: H358 cells (ATCC, CRL-5807) were cultured in RPMI1640 medium (Hyclone, SH30809.01) containing 10% fetal bovine serum (Corning, 35-076-CV) (i.e., complete medium). On the first day of the experiment, H358 cells were seeded into a 96-well plate at a density of 1200 cells/well using complete medium, with 100 μL of cell suspension per well, and the plate was incubated overnight in a 37° C., 5% CO2 cell incubator. On the second day, the test compounds, prepared in complete medium and serially diluted, were added at 10 μL/well. The final concentrations of the compounds were 9 concentration points obtained by a 5-fold serial dilution from 10 μM. A blank control containing 0.5% DMSO was set up. The plate was incubated for 120 h in a 37° C., 5% CO2 cell incubator. On the seventh day, the 96-well cell plate was removed from the incubator, and CellTiter-Glo® Luminescent Cell Viability Assay (Promega, G7573) was added at 50 μL/well. After 10 min of room temperature incubation, luminescence signals were measured using a multifunctional microplate reader (PerkinElmer, EnVision® 2105). The IC50 values for the inhibitory activity of the compounds were calculated using Graphpad Prism software."}, "[1]": {"tested_on": "ERK phosphorylation in H358 cells", "test": "H358 cell ERK phosphorylation inhibition assay (HTRF pERK/total ERK)", "conditions": "3 h incubation, ratio of pERK/total ERK, read-out: IC50 (nM), inhibitory effects on ERK phosphorylation in H358 cells", "method": "The inhibitory effects of the compounds of the present disclosure on ERK phosphorylation in H358 cells were measured. Below is a brief description of the experimental method: H358 cells (ATCC, CRL-5807) were cultured in RPMI1640 medium (Hyclone, SH30809.01) containing 10% fetal bovine serum (Corning, 35-076-CV) (i.e., complete medium). On the first day of the experiment, H358 cells were seeded into a 96-well plate at a density of 25,000 cells/well using complete medium, with 190 μL of cell suspension per well, and the plate was incubated overnight in a 37° C., 5% CO2 cell incubator. On the second day, the test compounds, prepared in complete medium and serially diluted, were added at 10 μL/well. The final concentrations of the compounds were 9 concentration points obtained by a 6-fold serial dilution from 10 μM. A blank control containing 0.5% DMSO was set up. The plate was incubated for 3 h in a 37° C., 5% CO2 cell incubator. After 3 h, the 96-well cell culture plate was removed from the incubator, and the culture medium was pipetted off. PBS (Shanghai BasalMedia Technologies Co., Ltd., B320) was added at 200 μL/well for a single wash. PBS was pipetted off, and lysis buffer (Cisbio, 64KL1FDF) containing a blocking agent (Cisbio, 64KB1AAC) was added at 50 μL/well. The plate was incubated on a shaker for 30 min at room temperature to lyse the cells. After lysis, the lysates were well mixed by pipetting, and 16 μL of lysate was transferred from each well to two HTRF 96-well assay plates (Cisbio, 66PL96100). Subsequently, 4 μL of a premixed phospho-ERK1/2 antibody solution (Cisbio, 64AERPEG) or 4 μL of a premixed total-ERK1/2 antibody solution (Cisbio, 64NRKPEG) was added to each of the plates. The plates were sealed with a plate sealer film, centrifuged for 1 min in a microplate centrifuge, and incubated overnight at room temperature in the dark. On the third day, fluorescence values at an excitation wavelength of 337 nm and emission wavelengths of 665 nm and 620 nm were measured using a PHERAstar multifunctional microplate reader (BMG Labtech, PHERAstar FS). The IC50 values for the inhibitory activity of the compounds were calculated using Graphpad Prism software, based on the compound concentration and the ratio of pERK/total ERK."}, "MIA PaCa-2 cells": {"tested_on": "MIA PaCa-2 cells", "test": "MIA PaCa-2 cell proliferation assay (CellTiter-Glo)", "conditions": "72 h incubation, read-out: IC50 (nM), inhibitory activity against MIA PaCa-2 cell proliferation", "method": "The inhibitory activity of the compounds of the present disclosure against MIA PaCa-2 cell proliferation was measured. Below is a brief description of the experimental method:\nMIA PaCa-2 cells (ATCC, CRL-1420) were cultured in DMEM/HIGH GLUCOSE medium (GE, SH30243.01) containing 10% fetal bovine serum (Corning, 35-076-CV) and 2.5% horse serum (Beyotime Biological Tech., C0262) (i.e., complete medium). On the first day of the experiment, MIA PaCa-2 cells were seeded into a 96-well plate at a density of 500 cells/well using complete medium, with 90 µL of cell suspension per well, and the plate was incubated overnight in a 37° C., 5% CO2 cell incubator. On the second day, the test compounds, prepared in complete medium and serially diluted, were added at 10 μL/well. The final concentrations of the compounds were 9 concentration points obtained by a 5-fold serial dilution from 10 μM. A blank control containing 0.5% DMSO was set up. The plate was incubated for 72 h in a 37° C., 5% CO2 cell incubator. On the fifth day, the 96-well cell plate was removed from the incubator, and CellTiter-Glo® Luminescent Cell Viability Assay (Promega, G7573) was added at 50 μL/well. After 10 min of room temperature incubation, luminescence signals were measured using a multifunctional microplate reader (PerkinElmer, EnVision2015). The IC50 values for the inhibitory activity of the compounds were calculated using Graphpad Prism software."}}, "note": "Read-outs that look alike come from different tables or passages of the source.", "data": [{"compound": "C=CC(=O)N1CCN2C(=O)c3cc(F)c(-c4ccc(F)c5sc(N)c(C#N)c45)c4c(F)cn(c34)CC[C@H]2C1", "note": "(atropisomer, axis not shown) [Example 13-P2, (S)-4-((S)-10-Acryloyl-2,4-difluoro-14-oxo-8,8a,9,10,11,12-hexahydro-7H,14H-pyrazino[1′,2′:5.6][1,5]diazocino[3,2,1-hi]indol-3-yl)-2-amino-7-fluorobenzo[b]thiophene-3-carbonitrile]", "values": [{"measurement": "IC50", "setting": "H358 cells; Homo sapiens, NCI-H358, 120 h", "value": 11.4, "unit": "nM"}, {"measurement": "IC50", "setting": "[1]; Homo sapiens, NCI-H358, 3 h", "value": 0.76, "unit": "nM"}, {"measurement": "IC50", "setting": "MIA PaCa-2 cells; Homo sapiens, MIA PaCa-2, 72 h", "value": 20.5, "unit": "nM"}]}, {"compound": "C=CC(=O)N1CCN2C(=O)c3cc(F)c(-c4ccc(F)c5sc(N)c(C#N)c45)c4nnn(c34)CC[C@H]2C1", "note": "(atropisomer, axis not shown) [Example 20-P1, (R)-4-((S)-9-Acryloyl-2-fluoro-12-oxo-7,7a,8,9,10,11-hexahydro-6H,12H-4,5,5a,9,11a-pentaazabenzo[5,6]cycloocta[1,2,3-cd]inden-3-yl)-2-amino-7-fluorobenzo[b]thiophene-3-carbonitrile]", "values": [{"measurement": "IC50", "setting": "H358 cells", "value": 4.94, "unit": "nM"}, {"measurement": "IC50", "setting": "[1]", "value": 3.67, "unit": "nM"}, {"measurement": "IC50", "setting": "MIA PaCa-2 cells", "value": 1.66, "unit": "nM"}]}, {"compound": "C=C(F)C(=O)N1CCN2C(=O)c3cc(F)c(-c4ccc(F)c5sc(N)c(C#N)c45)c4c(Cl)nn(c34)CC[C@H]2C1", "note": "(atropisomer, axis not shown) [Example 17-P2, (S)-2-Amino-4-((S)-4-chloro-2-fluoro-10-(2-fluoroacryloyl)-14-oxo-8,8a,9,10,11,12-hexahydro-7H,14H-pyrazino[1′,2′:5,6][1,5]diazocino[3,2,1-hi]indazol-3-yl)-7-fluorobenzo[b]thiophene-3-carbonitrile]", "values": [{"measurement": "IC50", "setting": "H358 cells; Homo sapiens, NCI-H358, 120 h", "value": 1.87, "unit": "nM"}, {"measurement": "IC50", "setting": "[1]; Homo sapiens, NCI-H358, 3 h", "value": 2, "unit": "nM"}, {"measurement": "IC50", "setting": "MIA PaCa-2 cells; Homo sapiens, MIA PaCa-2, 72 h", "value": 1.88, "unit": "nM"}]}]}
